Values quoted from earlier work as cited in patent US7884091B2, “Methods for treating delirium using glucocorticoid receptor-specific antagonists” (Corcept Therapeutics, Inc., priority 2001, dated 2011).

Details: in one study; Kawai (1989) supra

Compound: CC#C[C@]1(O)CC[C@H]2[C@@H]3CCC4=CC(=O)CCC4=C3[C@@H](c3ccc(N(C)C)cc3)C[C@@]21C [mifepristone, 17-beta-hydroxy-11-beta-(4-dimethyl-aminophenyl)-17-alpha-(1-propynyl)-estra-4,9-dien-3-one]
- daily dose excreted in the urine: less than 0.5%
